Target: T1, Nuclear receptor subfamily 1 group D member 1 (Homo sapiens, UniProt P20393)
T1 sequence (P20393 whole entry): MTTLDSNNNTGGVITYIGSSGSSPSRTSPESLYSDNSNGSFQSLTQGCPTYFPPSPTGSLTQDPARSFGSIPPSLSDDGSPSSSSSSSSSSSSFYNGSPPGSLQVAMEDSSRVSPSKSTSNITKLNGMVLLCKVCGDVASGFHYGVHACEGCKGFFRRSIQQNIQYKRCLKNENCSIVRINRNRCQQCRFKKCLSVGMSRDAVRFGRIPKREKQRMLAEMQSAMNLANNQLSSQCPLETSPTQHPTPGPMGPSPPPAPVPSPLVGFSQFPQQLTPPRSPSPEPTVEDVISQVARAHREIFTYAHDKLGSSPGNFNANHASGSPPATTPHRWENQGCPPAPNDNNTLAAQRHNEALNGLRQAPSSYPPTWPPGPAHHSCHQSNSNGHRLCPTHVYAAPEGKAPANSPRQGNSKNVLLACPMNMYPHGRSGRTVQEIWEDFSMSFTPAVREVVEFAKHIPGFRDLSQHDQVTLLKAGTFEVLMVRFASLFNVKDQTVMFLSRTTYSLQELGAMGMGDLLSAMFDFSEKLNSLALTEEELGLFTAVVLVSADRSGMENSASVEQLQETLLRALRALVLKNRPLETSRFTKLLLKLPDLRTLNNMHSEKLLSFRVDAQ
Assay: Increased REV-ERB-alpha LBD dependent repressor activity in HEK293 cell reporter assay
Format: cell-based
Conditions: hek293; call rule not given here

With `CC(C)(C)OC(=O)CN(Cc1ccc(Cl)cc1)Cc1ccc([N+](=O)[O-])s1` [GSK-4112] the IC50 was “Not Active”.

Source: ChEMBL document CHEMBL1961794, “Regulation of circadian behaviour and metabolism by synthetic REV-ERB agonists” (Nature, 2012)
